Experimental data published in patent publication US20240279202A1 (NURIX THERAPEUTICS, INC., priority 2021, published 2024).
Counter-ions that a name gives are not always drawn.

What was measured:
[1] = Mouse PK analysis (blood/plasma concentration after oral administration); assay type: in vivo; conditions: mice; for AUC(0-t) / Cmax / Tmax / concentration at 1 h / concentration at 2 h / concentration at 6 h: mouse, plasma; for AUC(0-t) / Cmax / Tmax / detected in plasma through (FIG. 4B) / concentration at 1 h / concentration at 2 h / concentration at 6 h: oral; for detected in plasma through (FIG. 4B): plasma LC/MS/MS; for concentration at 1 h / concentration at 2 h / concentration at 6 h: 90 mg/kg; for concentration at 1 h: read-out: Cal. Conc. Total (μM) 1 h; for concentration at 2 h: read-out: Cal. Conc. Total (μM) 2 h; for concentration at 6 h: read-out: Cal. Conc. Total (μM) 6 h
How it was run: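 Mice were dosed by oral gavage at 90 mg/kg with blood sampled at 1, 2 and 6 h; a second study used oral dosing with plasma taken at 6 or 24 h. Plasma levels were measured by LC/MS/MS (acetonitrile precipitation, internal-standard curve, positive ESI MRM), and Cmax, Tmax and AUClast were derived by noncompartmental analysis.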

[2] = biological target: T1, ITK (Homo sapiens, UniProt Q08881); assay: ITK degradation HiBiT assay; assay type: cell-based; parameters: expressed in transfected cells; host or cells: Molt4 (ATCC CRL-1552), monoclonal clone 1C10, engineered to carry the HiBiT tag; conditions: 4 hrs; for DC50: C-terminal HiBiT-tagged Molt4 cells; for Dmax: MOLT-4, C-terminal HiBiT-tagged Molt4 cells
T1 sequence (Q08881 1-620): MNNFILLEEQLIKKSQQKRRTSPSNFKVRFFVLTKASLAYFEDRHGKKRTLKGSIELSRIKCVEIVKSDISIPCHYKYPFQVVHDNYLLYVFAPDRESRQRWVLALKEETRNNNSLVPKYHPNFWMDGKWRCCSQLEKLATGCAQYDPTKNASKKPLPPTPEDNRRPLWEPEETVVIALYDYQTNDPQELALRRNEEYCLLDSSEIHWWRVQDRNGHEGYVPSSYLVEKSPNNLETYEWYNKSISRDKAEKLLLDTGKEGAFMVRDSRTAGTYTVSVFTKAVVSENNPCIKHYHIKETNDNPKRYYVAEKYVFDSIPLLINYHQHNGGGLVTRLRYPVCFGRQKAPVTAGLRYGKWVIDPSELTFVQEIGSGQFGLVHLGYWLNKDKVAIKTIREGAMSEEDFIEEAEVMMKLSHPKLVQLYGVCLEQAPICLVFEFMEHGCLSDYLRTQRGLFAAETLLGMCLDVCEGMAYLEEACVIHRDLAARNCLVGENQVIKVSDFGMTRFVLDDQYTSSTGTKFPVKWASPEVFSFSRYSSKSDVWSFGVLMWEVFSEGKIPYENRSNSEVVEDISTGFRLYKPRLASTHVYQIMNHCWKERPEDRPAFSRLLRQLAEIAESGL
How it was run: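 C-terminal HiBiT-tagged Molt4 cells (clone 1C10) treated 4 h at 32° C with an 11-point, 5-fold compound dilution series (0.5% DMSO). HiBiT lytic detection with LgBiT then luminescence read; % ITK remaining versus concentration fit by four-parameter variable-slope model to give DC50 and Dmax.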

SMILES	AUC(0-t) [1]	Cmax [1]	Tmax [1]	DC50 [2]	Dmax [2]	detected in plasma through (FIG. 4B) [1]	concentration at 1 h [1]	concentration at 2 h ([1]; 2 h)	concentration at 6 h ([1]; 6 h)	Cal. Conc. Total (μM) 2 h ([1]; 2 h)	Cal. Conc. Total (μM) 6 h ([1]; 6 h)
C[C@@]12Cc3[nH]nc(-c4cc5ccc(N6CCC7(CCN(Cc8ccc9c(c8)C(=O)N(C8CCC(=O)NC8=O)C9=O)CC7)C6=O)cc5[nH]4)c3C[C@@H]1C2(F)F (stereo partly drawn) [Compound 15, 5-((2-(2-((4aS,5aR)-5,5-difluoro-5a-methyl-1,4,4a,5,5a,6-hexahydrocyclopropa[f]indazol-3-yl)-1H-indol-6-yl)-1-oxo-2,8-diazaspiro[4.5]decan-8-yl)methyl)-2-(2,6-dioxopiperidin-3-yl)isoindoline-1,3-dione hydrochloride]	3.14 µM·h	743 nM	4 h	0.35 nM	93%						
Cn1c(=O)n(C2CCC(=O)NC2=O)c2cccc(N3CCC(CN4CCC5(CC4)CCN(c4ccc6cc(-c7n[nH]c8c7C[C@@H]7C(F)(F)[C@]7(C)C8)[nH]c6c4)C5=O)CC3)c21 (stereo partly drawn) [Compound 16, 3-(4-(4-((2-(2-((4aS,5aR)-5,5-difluoro-5a-methyl-1,4,4a,5,5a,6-hexahydrocyclopropa[f]indazol-3-yl)-1H-indol-6-yl)-1-oxo-2,8-diazaspiro[4.5]decan-8-yl)methyl)piperidin-1-yl)-3-methyl-2-oxo-2,3-dihydro-1H-benzo[d]imidazol-1-yl)piperidine-2,6-dione]	1.53 µM·h	585 nM	6 h	0.23 nM	90%	6 h					
C[C@@H](C(=O)N(C)c1ccc2cc(-c3n[nH]c4c3CCC(C)(C)C4)[nH]c2c1)N1CCN(C[C@H]2CCN(c3ccc4c(c3)CN(C3CCC(=O)NC3=O)C4=O)C2)CC1 (stereo partly drawn) [Compound 12, (2S)—N-(2-(6,6-dimethyl-4,5,6,7-tetrahydro-1H-indazol-3-yl)-1H-indol-6-yl)-2-(4-(((3R)-1-(2-(2,6-dioxopiperidin-3-yl)-1-oxoisoindolin-5-yl)pyrrolidin-3-yl)methyl)piperazin-1-yl)-N-methylpropanamide]	0.198 µM·h	80.3 nM	1 h	0.29 nM	86%						
CN(C(=O)CCN1CCN(c2ccc3c(c2)C(=O)N(C2CCC(=O)NC2=O)C3=O)CC1)c1ccc2cc(-c3n[nH]c4c3CCC(C)(C)C4)[nH]c2c1 (stereo not shown) [Compound 2, N-(2-(6,6-dimethyl-4,5,6,7-tetrahydro-1H-indazol-3-yl)-1H-indol-6-yl)-3-(4-(2-(2,6-dioxopiperidin-3-yl)-1,3-dioxoisoindolin-5-yl)piperazin-1-yl)-N-methylpropanamide]				4.4 nM	90%		0.041 µM	0.039 µM	0.059 µM		
C[C@@H](C(=O)N(C)c1ccc2cc(-c3n[nH]c4c3CCC(C)(C)C4)[nH]c2c1)N1CCN(C(=O)C2CN(C3CCN(c4ccc5c(c4)C(=O)N(C4CCC(=O)NC4=O)C5=O)CC3)C2)CC1 (stereo partly drawn) [Compound 34, (2S)—N-(2-(6,6-dimethyl-4,5,6,7-tetrahydro-1H-indazol-3-yl)-1H-indol-6-yl)-2-(4-(1-(1-(2-(2,6-dioxopiperidin-3-yl)-1,3-dioxoisoindolin-5-yl)piperidin-4-yl)azetidine-3-carbonyl)piperazin-1-yl)-N-methylpropanamide]				1.8 nM	89%					BQL	BQL
C[C@@]12Cc3[nH]nc(C(=O)Nc4cnn(CC5CN(C(=O)C6CN(c7ccc8c(c7)C(=O)N(C7CCC(=O)NC7=O)C8=O)C6)C5)c4)c3C[C@@H]1C2(F)F (stereo partly drawn) [Compound 43, (4aS,5aR)-N-(1-((1-(1-(2-(2,6-dioxopiperidin-3-yl)-1,3-dioxoisoindolin-5-yl)azetidine-3-carbonyl)azetidin-3-yl)methyl)-1H-pyrazol-4-yl)-5,5-difluoro-5a-methyl-1,4,4a,5,5a,6-hexahydrocyclopropa[f]indazole-3-carboxamide]	2.34 µM·h	720 nM	6 h	2.9 nM	93%						
C[C@@]12Cc3[nH]nc(C(=O)Nc4cnn(CC5CN(C[C@H]6CCN(c7ccc8c(c7)C(=O)N(C7CCC(=O)NC7=O)C8=O)C6)C5)c4)c3C[C@@H]1C2(F)F (stereo partly drawn) [Compound 44, (4aS,5aR)-N-(1-((1-(((3R)-1-(2-(2,6-dioxopiperidin-3-yl)-1,3-dioxoisoindolin-5-yl)pyrrolidin-3-yl)methyl)azetidin-3-yl)methyl)-1H-pyrazol-4-yl)-5,5-difluoro-5a-methyl-1,4,4a,5,5a,6-hexahydrocyclopropa[f]indazole-3-carboxamide]		27 nM	2 h	2.4 nM	88%						
Cn1c(=O)n([C@@H]2CCC(=O)NC2=O)c2cccc(N3CCC(CN4CCN(C(=O)c5ccc6cc(-c7n[nH]c8c7CCC(C)(C)C8)[nH]c6c5)CC4)CC3)c21 [Compound 48, (R)-3-(4-(4-((4-(2-(6,6-dimethyl-4,5,6,7-tetrahydro-1H-indazol-3-yl)-1H-indole-6-carbonyl)piperazin-1-yl)methyl)piperidin-1-yl)-3-methyl-2-oxo-2,3-dihydro-1H-benzo[d]imidazol-1-yl)piperidine-2,6-dione]	8.42 µM·h	2440 nM	6 h	5.2 nM	86%						
CN(C(=O)CN1CCC2(CC1)CCN(c1ccc3c(c1)C(=O)N(C1CCC(=O)NC1=O)C3=O)C2)c1ccc2cc(-c3n[nH]c4c3C[C@@H]3C(F)(F)[C@]3(C)C4)[nH]c2c1 (stereo partly drawn) [Compound 72, N-(2-((4aS,5aR)-5,5-difluoro-5a-methyl-1,4,4a,5,5a,6-hexahydrocyclopropa[f]indazol-3-yl)-1H-indol-6-yl)-2-(2-(2-(2,6-dioxopiperidin-3-yl)-1,3-dioxoisoindolin-5-yl)-2,8-diazaspiro[4.5]decan-8-yl)-N-methylacetamide]	0.02 µM·h	9 nM	4 h	0.12 nM	86%						
CN(C(=O)CCC1CCN(c2ccc3c(c2)C(=O)N(C2CCC(=O)NC2=O)C3=O)C1)c1ccc2cc(-c3n[nH]c4c3CCC(C)(C)C4)[nH]c2c1 (stereo not shown) [Compound 1, N-(2-(6,6-dimethyl-4,5,6,7-tetrahydro-1H-indazol-3-yl)-1H-indol-6-yl)-3-(1-(2-(2,6-dioxopiperidin-3-yl)-1,3-dioxoisoindolin-5-yl)pyrrolidin-3-yl)-N-methylpropanamide]				10.4 nM	88%		1.6 µM	1.7 µM	0.7 µM		
C[C@@H](C(=O)N(C)c1ccc2cc(-c3n[nH]c4c3C[C@@H]3C(F)(F)[C@]3(C)C4)[nH]c2c1)N1CCN(CC2CCN(c3ccc(C4CCC(=O)NC4=O)cn3)CC2)CC1 (stereo partly drawn) [Compound 17, (2S)—N-(2-((4aS,5aR)-5,5-difluoro-5a-methyl-1,4,4a,5,5a,6-hexahydrocyclopropa[f]indazol-3-yl)-1H-indol-6-yl)-2-(4-((1-(5-(2,6-dioxopiperidin-3-yl)pyridin-2-yl)piperidin-4-yl)methyl)piperazin-1-yl)-N-methylpropanamide]				< 0.001 nM		24 h					
C[C@@H](C(=O)N(C)c1ccc2cc(-c3n[nH]c4c3CCC(C)(C)C4)[nH]c2c1)N1CCN(C[C@H]2CCN(c3ccc4c(c3)n(C)c(=O)n4C3CCC(=O)NC3=O)C2)CC1 (stereo partly drawn) [Compound 5, (2S)—N-(2-(6,6-dimethyl-4,5,6,7-tetrahydro-1H-indazol-3-yl)-1H-indol-6-yl)-2-(4-(((3R)-1-(1-(2,6-dioxopiperidin-3-yl)-3-methyl-2-oxo-2,3-dihydro-1H-benzo[d]imidazol-5-yl)pyrrolidin-3-yl)methyl)piperazin-1-yl)-N-methylpropanamide]	0.7 µM·h	188 nM	4 h	1.3 nM	74%						
Cn1c(=O)n([C@H]2CCC(=O)NC2=O)c2cccc(N3CCC(CN4CCN(C(=O)c5ccc6cc(-c7n[nH]c8c7CCC(C)(C)C8)[nH]c6c5)CC4)CC3)c21 [Compound 46, (S)-3-(4-(4-((4-(2-(6,6-dimethyl-4,5,6,7-tetrahydro-1H-indazol-3-yl)-1H-indole-6-carbonyl)piperazin-1-yl)methyl)piperidin-1-yl)-3-methyl-2-oxo-2,3-dihydro-1H-benzo[d]imidazol-1-yl)piperidine-2,6-dione]	9.38 µM·h	2130 nM	4 h	14 nM	79%						
